Key:
Format in all cases: cell-based
[1] = target: human α1G T-type channels (Homo sapiens, UniProt O43497); assay: T-type calcium channel block, whole cell patch clamp, α1G; details: HEK cells stably expressing human α1G; mainly non-inactivated protocol; values above 10,000 nM represented as 10000
Procedure: (§1) T-type calcium channel blocking activity was assayed in human embryonic kidneycells, HEK 293 (Invitrogen), stably transfected with the T-type calcium channel subunits. Briefly, cells were cultured in Dulbecco's modified eagle medium (DMEM) supplemented with 10% fetal bovine serum, 200 U/ml penicillin, and 0.2 mg/mL streptomycin at 37° C. with 5% CO2. At 85% confluency, cells were split with 0.25% trypsin/1 mM EDTA and plated at 10% confluency on glass coverslips. At 12 hours, the medium was replaced, and the cells stably transfected using a standard calcium phosphate protocol and the appropriate calcium channel cDNA's. Fresh DMEM was supplied, and the cells transferred to 28° C./5% CO2.
(§2) Standard patch-clamp techniques were employed to identify blockers of T-type currents. Briefly, previously described HEK cell lines stably expressing human α1G, α1H, and α1I T-type channels were used for all the recordings (passage #: 4-20, 37° C., 5% CO2). Whole cell patch clamp experiments were performed using an Axopatch 200B amplifier (Axon Instruments, Burlingame, Calif.) linked to a personal computer equipped with pCLAMP software. Data were analyzed using Clampfit (Axon Instruments) and SigmaPlot 4.0 (Jandel Scientific). To obtain T-type currents, plastic dishes containing semi-confluent cells were positioned on the stage of a ZEISS AXIOVERT S100 microscope after replacing the culture medium with external solution (Table 2). Whole-cell patches were obtained using pipettes (borosilicate glass with filament, O.D.: 1.5 mm, I.D.: 0.86 mm, 10 cm length), fabricated on a SUTTER P-97 puller with resistance values of ˜5 MΩ (Table 3).
(§3) T-type currents were reliably obtained by using two voltage protocols: • “non-inactivating,” and • “inactivation.”
(§4) Test compounds were dissolved in external solution, 0.1-0.01% DMSO. After ˜10 minutes rest, they were applied by gravity close to the cell using a WPI microfil tubing. The “non-inactivated” pre-pulse was used to examine the resting block of a compound. The “inactivated” protocol was employed to study voltage-dependent block.

[2] = target: human α1H T-type channels (Homo sapiens, UniProt O95180); assay: T-type calcium channel block, whole cell patch clamp, α1H; details: HEK cells stably expressing human α1H; mainly non-inactivated protocol; values above 10,000 nM represented as 10000
Procedure: as §1, §2, §3, §4

[3] = target: N-type calcium channel subunits (α1B, α2δ, and β3a) (Homo sapiens, UniProt Q00975); assay: Block of Cav2.2 channel, whole cell voltage clamp, manual and PatchXpress; details: Table 5; table follows Assay Example 3 (whole cell voltage clamp / PatchXpress); assay not given
Procedure, shortened: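 Percent block taken as current amplitude ratio with versus without compound, applied in rising doses; IC50 fitted where one cell received multiple doses. Protocol: 50 ms pulses to +20 mV at 0.067 Hz from […] or −90 mV holding; P/n leak subtraction, no junction-potential correction; manual and PatchXpress recordings.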

human α1H T-type channels, sequence (O95180 whole entry): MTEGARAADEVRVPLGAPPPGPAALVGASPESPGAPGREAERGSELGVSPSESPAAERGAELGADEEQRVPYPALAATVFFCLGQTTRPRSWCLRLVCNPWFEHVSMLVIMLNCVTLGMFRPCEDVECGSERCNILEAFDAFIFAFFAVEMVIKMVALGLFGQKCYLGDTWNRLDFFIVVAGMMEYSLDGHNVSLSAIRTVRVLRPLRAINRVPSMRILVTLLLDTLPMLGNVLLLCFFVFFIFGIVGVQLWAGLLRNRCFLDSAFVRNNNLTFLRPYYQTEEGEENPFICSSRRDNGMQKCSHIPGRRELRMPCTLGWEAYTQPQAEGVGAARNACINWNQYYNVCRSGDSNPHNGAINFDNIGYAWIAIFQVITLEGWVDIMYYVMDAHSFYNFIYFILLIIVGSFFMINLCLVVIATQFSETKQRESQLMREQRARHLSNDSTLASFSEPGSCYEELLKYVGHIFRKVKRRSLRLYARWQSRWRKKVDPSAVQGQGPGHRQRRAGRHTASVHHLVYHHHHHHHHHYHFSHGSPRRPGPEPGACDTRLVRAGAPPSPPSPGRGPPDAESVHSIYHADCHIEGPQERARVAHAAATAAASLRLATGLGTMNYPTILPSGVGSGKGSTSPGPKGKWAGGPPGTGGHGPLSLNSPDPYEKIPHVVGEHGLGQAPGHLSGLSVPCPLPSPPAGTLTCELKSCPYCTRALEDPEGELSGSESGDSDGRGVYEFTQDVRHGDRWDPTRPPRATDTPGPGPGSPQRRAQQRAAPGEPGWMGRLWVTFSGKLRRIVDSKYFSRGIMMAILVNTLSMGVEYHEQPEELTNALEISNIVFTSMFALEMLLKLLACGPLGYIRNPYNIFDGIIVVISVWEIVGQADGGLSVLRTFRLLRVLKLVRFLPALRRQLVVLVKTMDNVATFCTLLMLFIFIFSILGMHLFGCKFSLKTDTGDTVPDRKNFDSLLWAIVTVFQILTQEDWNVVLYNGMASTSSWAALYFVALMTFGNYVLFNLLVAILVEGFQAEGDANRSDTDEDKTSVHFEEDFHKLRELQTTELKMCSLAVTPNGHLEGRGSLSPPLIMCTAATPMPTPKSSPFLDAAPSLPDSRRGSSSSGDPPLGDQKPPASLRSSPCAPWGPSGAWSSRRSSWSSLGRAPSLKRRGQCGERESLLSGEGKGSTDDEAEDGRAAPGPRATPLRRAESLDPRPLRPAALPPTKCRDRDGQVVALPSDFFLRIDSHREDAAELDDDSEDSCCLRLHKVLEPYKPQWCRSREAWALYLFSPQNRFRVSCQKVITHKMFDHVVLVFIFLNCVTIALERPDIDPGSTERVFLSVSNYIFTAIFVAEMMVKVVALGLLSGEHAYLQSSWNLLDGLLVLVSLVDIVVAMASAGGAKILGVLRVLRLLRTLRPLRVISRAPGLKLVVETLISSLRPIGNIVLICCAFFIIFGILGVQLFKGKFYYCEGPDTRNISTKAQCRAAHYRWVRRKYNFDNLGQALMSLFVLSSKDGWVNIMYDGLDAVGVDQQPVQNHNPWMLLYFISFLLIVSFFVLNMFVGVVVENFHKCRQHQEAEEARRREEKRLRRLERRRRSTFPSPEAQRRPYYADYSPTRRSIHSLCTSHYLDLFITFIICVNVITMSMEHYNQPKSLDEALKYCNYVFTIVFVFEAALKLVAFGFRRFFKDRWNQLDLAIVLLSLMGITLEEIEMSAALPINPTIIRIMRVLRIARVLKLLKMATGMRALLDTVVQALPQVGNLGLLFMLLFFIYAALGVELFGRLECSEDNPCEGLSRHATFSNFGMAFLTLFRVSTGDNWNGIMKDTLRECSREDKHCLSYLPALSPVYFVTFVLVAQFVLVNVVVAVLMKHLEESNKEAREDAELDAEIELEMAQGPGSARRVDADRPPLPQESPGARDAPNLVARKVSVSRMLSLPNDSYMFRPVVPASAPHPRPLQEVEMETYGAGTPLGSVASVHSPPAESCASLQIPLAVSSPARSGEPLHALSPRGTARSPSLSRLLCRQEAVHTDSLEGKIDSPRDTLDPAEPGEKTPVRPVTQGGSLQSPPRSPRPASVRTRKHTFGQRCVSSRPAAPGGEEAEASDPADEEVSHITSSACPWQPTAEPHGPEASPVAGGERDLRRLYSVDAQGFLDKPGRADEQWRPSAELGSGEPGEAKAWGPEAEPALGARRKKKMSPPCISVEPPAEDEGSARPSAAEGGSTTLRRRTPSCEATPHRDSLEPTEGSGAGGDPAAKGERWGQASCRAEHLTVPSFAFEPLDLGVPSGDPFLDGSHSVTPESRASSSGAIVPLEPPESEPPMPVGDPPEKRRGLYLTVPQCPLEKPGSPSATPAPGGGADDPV
human α1G T-type channels, sequence (O43497 whole entry): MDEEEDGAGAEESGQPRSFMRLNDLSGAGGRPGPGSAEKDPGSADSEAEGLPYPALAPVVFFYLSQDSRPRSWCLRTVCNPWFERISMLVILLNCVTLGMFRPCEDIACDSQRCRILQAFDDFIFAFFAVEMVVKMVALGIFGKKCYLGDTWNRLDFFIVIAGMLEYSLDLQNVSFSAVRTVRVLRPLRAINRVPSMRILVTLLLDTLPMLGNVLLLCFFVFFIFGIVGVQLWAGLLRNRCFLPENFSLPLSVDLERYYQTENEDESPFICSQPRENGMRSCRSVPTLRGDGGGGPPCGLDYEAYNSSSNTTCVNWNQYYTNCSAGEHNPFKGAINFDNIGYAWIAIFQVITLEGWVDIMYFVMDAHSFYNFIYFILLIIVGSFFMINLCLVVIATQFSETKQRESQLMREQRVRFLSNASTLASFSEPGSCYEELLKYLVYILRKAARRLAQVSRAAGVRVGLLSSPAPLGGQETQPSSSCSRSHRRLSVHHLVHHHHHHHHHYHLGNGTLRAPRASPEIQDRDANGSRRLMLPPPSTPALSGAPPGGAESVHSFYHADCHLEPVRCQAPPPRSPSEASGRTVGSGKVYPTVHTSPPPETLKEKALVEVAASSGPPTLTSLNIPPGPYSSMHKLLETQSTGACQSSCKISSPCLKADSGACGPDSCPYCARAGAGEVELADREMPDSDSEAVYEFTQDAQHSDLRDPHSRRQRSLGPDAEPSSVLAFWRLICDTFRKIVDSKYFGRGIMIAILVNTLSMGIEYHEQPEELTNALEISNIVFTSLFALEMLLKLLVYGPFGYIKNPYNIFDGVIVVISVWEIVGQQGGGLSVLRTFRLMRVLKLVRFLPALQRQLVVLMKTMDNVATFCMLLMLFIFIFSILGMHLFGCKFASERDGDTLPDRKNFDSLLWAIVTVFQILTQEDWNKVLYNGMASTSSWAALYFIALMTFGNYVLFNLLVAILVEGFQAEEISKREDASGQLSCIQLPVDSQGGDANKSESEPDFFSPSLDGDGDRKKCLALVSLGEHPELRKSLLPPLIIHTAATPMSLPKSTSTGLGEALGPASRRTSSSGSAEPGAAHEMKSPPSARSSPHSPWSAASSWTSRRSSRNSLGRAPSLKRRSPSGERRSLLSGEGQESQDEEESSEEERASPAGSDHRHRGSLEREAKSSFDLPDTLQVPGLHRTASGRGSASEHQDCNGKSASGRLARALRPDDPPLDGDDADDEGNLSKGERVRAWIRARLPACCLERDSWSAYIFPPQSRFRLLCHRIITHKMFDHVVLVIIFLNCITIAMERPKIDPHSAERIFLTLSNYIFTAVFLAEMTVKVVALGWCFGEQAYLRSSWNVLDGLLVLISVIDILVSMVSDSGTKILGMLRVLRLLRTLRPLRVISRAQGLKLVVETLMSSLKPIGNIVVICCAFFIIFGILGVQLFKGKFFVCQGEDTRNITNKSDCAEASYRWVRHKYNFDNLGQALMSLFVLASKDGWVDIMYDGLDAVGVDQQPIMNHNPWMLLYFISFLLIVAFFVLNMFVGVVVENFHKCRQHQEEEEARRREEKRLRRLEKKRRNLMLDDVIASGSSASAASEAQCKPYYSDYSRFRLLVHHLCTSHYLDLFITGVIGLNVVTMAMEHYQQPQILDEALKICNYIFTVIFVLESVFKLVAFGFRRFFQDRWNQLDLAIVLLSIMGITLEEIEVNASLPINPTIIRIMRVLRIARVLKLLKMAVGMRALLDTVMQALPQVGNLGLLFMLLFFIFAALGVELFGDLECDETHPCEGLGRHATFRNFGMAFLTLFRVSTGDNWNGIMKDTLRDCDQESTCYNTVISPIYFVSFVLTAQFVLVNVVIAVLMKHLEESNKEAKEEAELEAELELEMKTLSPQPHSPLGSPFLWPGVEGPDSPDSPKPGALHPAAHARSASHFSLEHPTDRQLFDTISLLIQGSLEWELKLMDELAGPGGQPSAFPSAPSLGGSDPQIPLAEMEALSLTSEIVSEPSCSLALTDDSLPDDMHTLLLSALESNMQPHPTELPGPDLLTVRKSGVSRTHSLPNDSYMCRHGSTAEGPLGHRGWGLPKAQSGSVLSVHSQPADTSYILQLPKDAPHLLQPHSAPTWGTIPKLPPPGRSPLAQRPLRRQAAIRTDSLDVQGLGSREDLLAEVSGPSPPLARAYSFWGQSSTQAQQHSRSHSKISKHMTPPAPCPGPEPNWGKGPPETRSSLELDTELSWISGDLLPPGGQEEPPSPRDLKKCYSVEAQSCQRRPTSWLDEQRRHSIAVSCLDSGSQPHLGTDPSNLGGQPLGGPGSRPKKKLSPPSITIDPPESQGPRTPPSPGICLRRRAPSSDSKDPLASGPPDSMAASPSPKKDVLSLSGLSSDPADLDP

| Compound | IC50 [1] [nM] | IC50 [2] [nM] | IC50 [3] [nM] |
| --- | --- | --- | --- |
| 1-(trifluoromethyl)-N-((1R,4R)-4- ((3- (trifluoromethyl)phenylsulfonyl) methyl)cyclohexyl) cyclobutanecarboxamide [Compound 109] | > 10000 | > 10000 |  |
| CCN(CC)C(=O)CN[C@H]1CC[C@@H](S(=O)(=O)c2cccc(C(F)(F)F)c2)CC1 [Compound 51, N,N-diethyl-2-((1S,4S)-4-(3-(trifluoromethyl)phenylsulfonyl)cyclohexylamino)acetamide] |  | > 10000 | 1510 |
| O=C(N[C@H]1CC[C@H](S(=O)(=O)c2cccc(C(F)(F)F)c2)CC1)c1cc(C(F)(F)F)ccn1 [Compound 61, 4-(trifluoromethyl)-N-((1R,4R)-4-(3-(trifluoromethyl)phenylsulfonyl)cyclohexyl)picolinamide] |  | > 10000 | 1650 |
| Cn1cc(C(=O)N[C@H]2CC[C@H](S(=O)(=O)c3cccc(C(F)(F)F)c3)CC2)c(C(F)(F)F)n1 [Compound 64, 1-methyl-3-(trifluoromethyl)-N-((1R,4R)-4-(3-(trifluoromethyl)phenylsulfonyl)cyclohexyl)-1H-pyrazole-4-carboxamide] |  | > 10000 | 550 |
| O=C(CN[C@H]1CC[C@H](S(=O)(=O)c2cccc(C(F)(F)F)c2)CC1)NCC(F)(F)F [Compound 68, N-(2,2,2-trifluoroethyl)-2-((1R,4R)-4-(3-(trifluoromethyl)phenylsulfonyl)cyclohexylamino)acetamide] |  | > 10000 | 1720 |
| CC1(NC(=O)c2cc(F)cc(Cl)c2)CCC(F)(S(=O)(=O)c2cccc(C(F)(F)F)c2)CC1 (centres unmarked) [Compound 93, 3-chloro-5-fluoro-N-(4-fluoro-1-methyl-4-(3-(trifluoromethyl)phenylsulfonyl)cyclohexyl)benzamide] |  | > 10000 | 240 |
| O=C(N[C@H]1CC[C@H](CS(=O)(=O)c2cccc(C(F)(F)F)c2)CC1)c1cc(F)cc(Cl)c1 [Compound 101, 3-chloro-5-fluoro-N-((1R,4R)-4-((3-(trifluoromethyl)phenylsulfonyl)methyl)cyclohexyl)benzamide] | 3670 | 3500 |  |
| O=C(N[C@H]1CC[C@H](CS(=O)(=O)c2cccc(C(F)(F)F)c2)CC1)C1CCOCC1 [Compound 105, N-((1R,4R)-4-((3-(trifluoromethyl)phenylsulfonyl)methyl)cyclohexyl)tetrahydro-2H-pyran-4-carboxamide] | > 10000 | 2480 |  |
| O=C(N[C@H]1CC[C@H](CS(=O)(=O)c2cccc(C(F)(F)F)c2)CC1)c1cc(F)cc(C(F)(F)F)c1 [Compound 107, 3-fluoro-5-(trifluoromethyl)-N-((1R,4R)-4-((3-(trifluoromethyl)phenylsulfonyl)methyl)cyclohexyl)benzamide] |  | > 10000 | 2710 |
| O=C(N[C@H]1CC[C@H](CS(=O)(=O)c2cccc(C(F)(F)F)c2)CC1)c1cc(C(F)(F)F)n[nH]1 [Compound 112, 3-(trifluoromethyl)-N-((lR,4R)-4-((3-(trifluoromethyI)phenylsulfonyl)methyl)cyclohexyl)-1H-pyrazole-5-carboxamide] | > 10000 | 8360 |  |
| O=C(CN[C@H]1CC[C@H](CS(=O)(=O)c2cccc(C(F)(F)F)c2)CC1)Nc1ccccn1 [Compound 120, N-(pyridin-2-yl)-2-((1R,4R)-4-((3-(trifluoromethyl)phenylsulfonyl)methyl)cyclohexylamino)acetamide] |  | > 10000 | 580 |
| CS(=O)(=O)c1ccc(C(=O)N[C@H]2CC[C@H](S(=O)(=O)c3cccc(C(F)(F)F)c3)CC2)c(Cl)c1 [Compound 122, 2-chloro-4-(methylsulfonyl)-N-((1R,4R)-4-(3-(trifluoromethyl)phenylsulfonyl)cyclohexyl)benzamide] | 690 | 990 |  |
| CC(C)(C)S(=O)(=O)c1ccsc1C(=O)N[C@H]1CC[C@H](CS(=O)(=O)c2cccc(C(F)(F)F)c2)CC1 [Compound 178, 3-(tert-butylsulfonyl)-N-((1R.4R)-4-((3-(trifluoromethyl)phenylsulfonyl)methyl)cyclohexyl)thiophene-2-carboxamide] |  | > 10000 | 250 |
| CC(C)(C(=O)N[C@H]1CC[C@@](F)(S(=O)(=O)c2cc(F)cc(C(F)(F)F)c2)CC1)S(=O)(=O)c1cccc(C(F)(F)F)c1 [Compound 292, N-((1S,4S)-4-fluoro-4-(3-fluoro-5-(trifluoromethyl)phenylsulfonyl)cyclohexyl)-2-methyl-2-(3-(trifluoromethyl)phenylsulfonyl) propanamide] |  | > 10000 | 130 |
| Cc1nc(S(=O)(=O)N[C@H]2CC[C@@](F)(S(=O)(=O)c3cccc(C(F)(F)F)c3)CC2)cn1C [Compound 294] |  | > 10000 | 3760 |
| CC1(NC(=O)c2ccc(OC(F)(F)F)cc2)CCC(S(=O)(=O)c2cccc(C(F)(F)F)c2)CC1 (centres unmarked) [Compound 315, N-(1-methyl-4-(3-(trifluoromethyl)phenylsulfonyl)cyclohexyl)-4-(trifluoromethoxy)benzamide] |  | > 10000 | 1230 |
| Cn1nc(C(F)(F)F)cc1C(=O)N[C@H]1CC[C@@H](S(=O)(=O)c2cc(F)cc(C(F)(F)F)c2)CC1 [Compound 321, N-((1S,4S)-4-(3-fluoro-5-(trifluoromethyl)phenylsulfonyl)cyclohexyl)-1-methyl-3-(trifluoromethyl)-1Hpyrazole-5-carboxamide] |  | > 10000 | 1920 |
| O=C(N[C@H]1CC[C@@](F)(S(=O)(=O)c2cc(F)cc(C(F)(F)F)c2)CC1)c1cc(F)cc(Cl)c1 [Compound 326, 3-chloro-5-fluoro-N-((1S,4S)-4-fluoro-4-(3-fluoro-5-(trifluoromethyl)phenylsulfonyl)cyclohexyl) benzamide] |  | 1480 | 330 |
| O=C(NC[C@H]1C[C@H](S(=O)(=O)c2cccc(C(F)(F)F)c2)C1)c1ccnc(C(F)(F)F)n1 [Compound 362, 2-(trifluoromethyl)-N-(((1R,3R)-3-(3-(trifluoromethyl)phenylsulfonyl)cyclobutyl)methyl)pyrimidine-4-carboxamide] |  | > 10000 | 370 |
| COc1cc(C(=O)NC[C@H]2C[C@H](S(=O)(=O)c3cccc(C(F)(F)F)c3)C2)cc(Cl)n1 [Compound 363, 2-chloro-6-methoxy-N-(((1R,3R)-3-(3-(trifluoromethyl)phenylsulfonyl)cyclobutyl)methyl)isonicotinamide] |  | > 10000 | 310 |
| COc1cc(C(=O)NC[C@H]2C[C@@H](S(=O)(=O)c3cccc(C(F)(F)F)c3)C2)cc(Cl)n1 [Compound 380, 2-chloro-6-methoxy-N-(((1S,3S)-3-(3-(trifluoromethyl)phenylsulfonyl)cyclobutyl)methyl)isonicotinamide] |  | > 10000 | 1470 |
| O=C(NC[C@H]1C[C@@H](S(=O)(=O)c2cccc(C(F)(F)F)c2)C1)c1cc(F)cc(Cl)c1 [Compound 381, 3-chloro-5-fluoro-N-(((1S,3S)-3-(3-(trifluoromethyl)phenylsulfonyl)cyclobutyl)methyl)benzamide] |  | > 10000 | 590 |
| O=C(Nc1ccc(Oc2ccc(Cl)cc2)cc1)[C@H]1C[C@H](S(=O)(=O)c2cccc(C(F)(F)F)c2)C1 [Compound 404, (1R,3R)-N-(4-(4-chlorophenoxy)phenyl)-3-(3-(trifluoromethyl)phenylsulfonyl)cyclobutane carboxamide] |  | > 10000 | 3330 |
| O=C(CN[C@H]1C[C@H](S(=O)(=O)c2cccc(C(F)(F)F)c2)C1)NC1CCC(F)(F)CC1 [Compound 428, N-(4,4-ditluorocyclohexyl)-2-((1R,3R)-3-(3-(trifluoromethyl)phenylsulfonyl)cyclobutylamino) acetamide] |  | > 10000 | 960 |
| CC([C@H]1C[C@H](NC(=O)c2ccc(F)c(C(F)(F)F)c2)C1)S(=O)(=O)c1cccc(C(F)(F)F)c1 (stereo partly drawn) [Compound 433, 4-fluoro-3-(trifluoromethyl)-N-((1R,3R)-3-((R)-1-(3-(trifluoromethyl)phenylsulfonyl)ethyl)cyclobutyl)benzamide] |  | > 10000 | 220 |

Source: patent US20120245137A1 (Zalicus Pharmaceuticals Ltd., priority 2009, published 2012)
